# In ChEMBL document CHEMBL1129415, “Structure-activity relationship studies on benzofuran analogs of propafenone-type modulators of tumor cell multidrug resistance” (J Med Chem, 1996):
# The source made the active and inactive calls. The calls are words filed in the database; no cut-off is given here.
# What was measured:
# [1] = Partition coefficient (logP); format: physicochemical; settings: octanol/water
# CCRF-CEM [2] = experiment: Effective dose against CCRF-CEM vcr 100 cells by using MTT assay; format: functional, Homo sapiens
# CCRF-CEM [3] = test system: CCRF-CEM
# Description: Effective dose against CCRF-CEM vcr 100 cells by using rhodamine efflux studies.
# CCRF-CEM [4] = settings: Homo sapiens
# Description: Compound was tested for effective dose against CCRF-CEM vcr 100 cells by using rhodamine efflux studies; na=not active
# CCRF-CEM [5] = experiment: Compound was tested for effective dose against CCRF-CEM vcr 100 cells by using MTT assay; na=not active; format: functional, cell-based; settings: Homo sapiens
Structure (SMILES),logP [1],ED50 (CCRF-CEM [2]) [µM],ED50 (CCRF-CEM [3]) [uM l-1],ED50 (CCRF-CEM [4]),ED50 (CCRF-CEM [5])
CCCN(C)CC(O)COc1ccccc1C(=O)CCc1ccccc1 (stereo not drawn),3.77,0.27,1.36,–,–
CC(C)NCCc1oc2ccccc2c1CCc1ccccc1,4.54,1.1,5.8,–,–
CCCNCCc1oc2ccccc2c1CCc1ccccc1,4.71,0.87,2.9,–,–
CCCNCC(O)c1oc2ccccc2c1CC (stereo not drawn),3.1,4.19,69.6,–,–
O=C(CCc1ccccc1)c1ccccc1OCC(O)CN1CCOCC1 (stereo not drawn),2.54,1.49,13.56,–,–
CN(C)CC(O)COc1ccccc1C(=O)CCc1ccccc1 (stereo not drawn),2.94,0.82,7.12,–,–
O=C(CCc1ccccc1)c1ccccc1OCC(O)CN1CCCC1 (stereo not drawn),3.26,0.52,2.55,–,–
O=C(CCc1ccccc1)c1ccccc1OCC(O)CN1CCN(c2ccc(F)cc2)CC1 (stereo not drawn),4.93,0.15,0.16,–,–
COc1ccc(N2CCN(CC(O)COc3ccccc3C(=O)CCc3ccccc3)CC2)cc1 (stereo not drawn),4.65,0.11,0.28,–,–
O=C(CCc1ccccc1)c1ccccc1OCC(O)CNCc1ccccc1 (stereo not drawn),4.3,0.19,0.41,–,–
CCCNCC(O)c1oc2ccccc2c1CCc1ccccc1 (stereo not drawn),4.07,1.8,13.61,–,–
CC(=O)c1ccccc1OCC(O)CN1CCN(c2ccc(F)cc2)CC1 (stereo not drawn),2.67,0.89,8.61,–,–
COc1ccccc1N1CCN(CC(=O)c2oc3ccccc3c2CCc2ccccc2)CC1,5.05,2.02,4.96,–,–
O=C(CCc1ccccc1)c1ccccc1OCC(O)CN1CCCCC1 (stereo not drawn),3.67,0.29,1.65,–,–
CCC(=O)c1ccccc1OCC(O)CN1CCOCC1 (stereo not drawn),0.94,–,–,inactive,inactive
CC(C)N(CC(O)COc1ccccc1C(=O)CCc1ccccc1)C(C)C (stereo not drawn),4.25,0.29,0.61,–,–
COc1ccccc1N1CCN(CC(O)c2oc3ccccc3c2CCc2ccccc2)CC1 (stereo not drawn),5.32,0.21,0.46,–,–
CCCNCC(O)COc1ccccc1C(=O)CCc1ccccc1 (stereo not drawn) [PROPAFENONE],–,–,3.55,–,–
Cc1ccccc1N1CCN(CC(O)COc2ccccc2C(=O)CCc2ccccc2)CC1 (stereo not drawn),5.26,0.05,0.06,–,–
CCN(CC)CC(O)COc1ccccc1C(=O)CCc1ccccc1 (stereo not drawn),3.62,0.39,1.4,–,–
